Measurements published in paper PMC5390467, “Novel lead structures with both Plasmodium falciparum gametocytocidal and asexual blood stage activity identified from high throughput compound screening” (Malaria Journal, 2017).

Columns and labels:
Experiment in all cases: Kinome scan profile
Assay type in all cases: binding
Settings in all cases: 10 μM
PRKG2 = target: T1, PRKG2 (Homo sapiens, UniProt Q13237)
T1 construct: purchased DiscoverX (KINOMEscan)
T1 sequence (Q13237 1-762): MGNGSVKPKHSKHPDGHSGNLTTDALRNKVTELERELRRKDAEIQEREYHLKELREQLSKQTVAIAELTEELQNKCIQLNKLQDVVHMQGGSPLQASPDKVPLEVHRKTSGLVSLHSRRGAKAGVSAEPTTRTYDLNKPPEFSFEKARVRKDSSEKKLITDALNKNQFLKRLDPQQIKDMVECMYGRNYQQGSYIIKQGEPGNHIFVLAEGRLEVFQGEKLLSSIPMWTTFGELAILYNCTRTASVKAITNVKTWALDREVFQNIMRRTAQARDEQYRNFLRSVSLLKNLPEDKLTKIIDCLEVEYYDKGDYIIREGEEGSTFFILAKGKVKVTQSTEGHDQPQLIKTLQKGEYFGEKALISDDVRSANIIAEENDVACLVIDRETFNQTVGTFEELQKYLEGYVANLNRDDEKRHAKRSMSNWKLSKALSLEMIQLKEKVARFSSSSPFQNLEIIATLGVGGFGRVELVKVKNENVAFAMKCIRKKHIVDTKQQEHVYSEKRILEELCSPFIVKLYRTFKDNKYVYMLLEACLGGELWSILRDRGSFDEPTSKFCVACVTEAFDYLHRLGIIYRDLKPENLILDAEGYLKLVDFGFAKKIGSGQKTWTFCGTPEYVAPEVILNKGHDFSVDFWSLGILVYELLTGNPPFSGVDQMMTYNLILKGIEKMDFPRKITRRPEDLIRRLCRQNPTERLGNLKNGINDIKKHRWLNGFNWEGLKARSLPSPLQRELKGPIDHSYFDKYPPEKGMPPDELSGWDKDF

MYLK = target: T2, MYLK (Homo sapiens, UniProt Q15746)
T2 construct: purchased DiscoverX (KINOMEscan)
T2 sequence (Q15746 whole entry): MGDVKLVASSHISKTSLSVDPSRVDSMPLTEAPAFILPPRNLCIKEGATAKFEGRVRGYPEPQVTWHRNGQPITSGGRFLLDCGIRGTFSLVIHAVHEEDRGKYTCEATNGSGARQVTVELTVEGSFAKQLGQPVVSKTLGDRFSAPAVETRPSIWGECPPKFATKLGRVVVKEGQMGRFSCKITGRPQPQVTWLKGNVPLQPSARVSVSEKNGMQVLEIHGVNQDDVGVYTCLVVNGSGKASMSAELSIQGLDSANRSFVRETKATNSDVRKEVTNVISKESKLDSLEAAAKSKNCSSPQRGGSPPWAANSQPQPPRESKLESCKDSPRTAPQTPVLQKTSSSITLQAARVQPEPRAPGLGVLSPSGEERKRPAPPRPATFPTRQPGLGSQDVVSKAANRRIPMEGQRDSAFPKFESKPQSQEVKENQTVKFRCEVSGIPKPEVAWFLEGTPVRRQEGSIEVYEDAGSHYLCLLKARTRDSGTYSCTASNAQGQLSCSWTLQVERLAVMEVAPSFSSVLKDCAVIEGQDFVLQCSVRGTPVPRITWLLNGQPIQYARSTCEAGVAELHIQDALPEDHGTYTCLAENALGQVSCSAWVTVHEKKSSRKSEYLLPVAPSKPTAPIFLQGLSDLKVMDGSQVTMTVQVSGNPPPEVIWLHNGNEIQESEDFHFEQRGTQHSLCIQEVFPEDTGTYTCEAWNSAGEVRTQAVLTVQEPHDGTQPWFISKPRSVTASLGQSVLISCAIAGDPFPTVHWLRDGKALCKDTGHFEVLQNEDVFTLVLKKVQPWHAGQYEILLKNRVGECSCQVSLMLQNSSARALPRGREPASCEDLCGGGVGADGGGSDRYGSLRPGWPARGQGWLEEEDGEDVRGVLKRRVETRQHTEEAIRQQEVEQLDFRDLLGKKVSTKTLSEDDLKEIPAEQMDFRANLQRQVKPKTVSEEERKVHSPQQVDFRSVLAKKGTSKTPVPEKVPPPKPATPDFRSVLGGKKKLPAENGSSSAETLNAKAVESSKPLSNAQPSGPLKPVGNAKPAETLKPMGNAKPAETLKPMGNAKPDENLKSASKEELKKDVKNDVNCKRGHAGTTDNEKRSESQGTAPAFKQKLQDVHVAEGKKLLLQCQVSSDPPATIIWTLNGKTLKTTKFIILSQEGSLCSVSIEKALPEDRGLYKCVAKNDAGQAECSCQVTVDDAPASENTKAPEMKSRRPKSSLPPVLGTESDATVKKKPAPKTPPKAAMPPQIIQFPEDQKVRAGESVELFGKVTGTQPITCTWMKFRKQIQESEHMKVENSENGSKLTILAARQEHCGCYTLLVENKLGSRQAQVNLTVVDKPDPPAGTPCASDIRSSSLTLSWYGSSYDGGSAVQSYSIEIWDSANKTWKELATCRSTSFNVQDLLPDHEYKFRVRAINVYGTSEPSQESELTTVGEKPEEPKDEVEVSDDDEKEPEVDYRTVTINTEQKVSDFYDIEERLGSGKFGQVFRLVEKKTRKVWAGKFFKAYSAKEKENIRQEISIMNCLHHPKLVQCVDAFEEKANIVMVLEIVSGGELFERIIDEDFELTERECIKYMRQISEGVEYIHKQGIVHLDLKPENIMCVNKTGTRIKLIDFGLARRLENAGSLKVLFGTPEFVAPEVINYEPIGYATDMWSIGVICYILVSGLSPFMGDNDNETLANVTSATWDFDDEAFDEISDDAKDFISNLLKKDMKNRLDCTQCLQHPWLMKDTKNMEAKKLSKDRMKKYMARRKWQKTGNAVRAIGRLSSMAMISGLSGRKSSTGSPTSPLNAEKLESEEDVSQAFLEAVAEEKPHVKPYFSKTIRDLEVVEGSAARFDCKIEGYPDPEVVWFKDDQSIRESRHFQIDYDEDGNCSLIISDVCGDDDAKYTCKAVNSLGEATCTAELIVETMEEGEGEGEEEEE

ERBB3 = target: T3, ERBB3 (Homo sapiens, UniProt P21860)
T3 construct: purchased DiscoverX (KINOMEscan)
T3 sequence (P21860 20-1342): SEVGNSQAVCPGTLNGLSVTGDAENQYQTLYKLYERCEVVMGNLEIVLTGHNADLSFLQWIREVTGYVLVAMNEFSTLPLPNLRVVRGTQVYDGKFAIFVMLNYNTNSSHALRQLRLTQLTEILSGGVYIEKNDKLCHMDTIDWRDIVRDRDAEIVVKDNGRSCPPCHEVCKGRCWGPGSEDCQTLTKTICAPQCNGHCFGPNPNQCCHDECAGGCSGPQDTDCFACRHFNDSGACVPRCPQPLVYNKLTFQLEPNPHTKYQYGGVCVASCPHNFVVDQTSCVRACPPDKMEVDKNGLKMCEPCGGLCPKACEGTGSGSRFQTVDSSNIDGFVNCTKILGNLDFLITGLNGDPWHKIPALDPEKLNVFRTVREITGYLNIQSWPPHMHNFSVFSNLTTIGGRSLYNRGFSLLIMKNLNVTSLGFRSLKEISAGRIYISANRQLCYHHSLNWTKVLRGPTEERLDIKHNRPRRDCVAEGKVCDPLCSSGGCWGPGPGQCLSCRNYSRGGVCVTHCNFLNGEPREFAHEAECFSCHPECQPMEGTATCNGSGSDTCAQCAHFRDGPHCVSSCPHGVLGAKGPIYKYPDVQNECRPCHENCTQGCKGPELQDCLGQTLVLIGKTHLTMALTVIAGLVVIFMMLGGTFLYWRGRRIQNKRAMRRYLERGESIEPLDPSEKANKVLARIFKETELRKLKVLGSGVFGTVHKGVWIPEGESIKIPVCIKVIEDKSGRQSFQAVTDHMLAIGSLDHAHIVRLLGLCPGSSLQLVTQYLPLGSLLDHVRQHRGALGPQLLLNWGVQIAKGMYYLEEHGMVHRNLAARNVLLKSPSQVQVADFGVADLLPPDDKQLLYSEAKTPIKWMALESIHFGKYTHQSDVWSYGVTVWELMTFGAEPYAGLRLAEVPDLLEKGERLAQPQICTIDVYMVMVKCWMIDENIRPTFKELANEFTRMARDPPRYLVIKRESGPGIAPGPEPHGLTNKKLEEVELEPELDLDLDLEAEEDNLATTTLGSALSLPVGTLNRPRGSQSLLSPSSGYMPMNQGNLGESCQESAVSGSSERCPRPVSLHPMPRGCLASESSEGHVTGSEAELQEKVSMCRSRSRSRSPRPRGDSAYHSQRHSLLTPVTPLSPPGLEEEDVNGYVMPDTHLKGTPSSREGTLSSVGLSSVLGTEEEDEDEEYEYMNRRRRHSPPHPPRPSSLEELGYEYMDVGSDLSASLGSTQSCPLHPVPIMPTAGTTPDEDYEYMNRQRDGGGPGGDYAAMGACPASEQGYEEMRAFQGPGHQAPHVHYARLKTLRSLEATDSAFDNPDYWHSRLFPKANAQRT

PIK3CD = target: T4, PIK3CD (Homo sapiens, UniProt O00329)
T4 construct: purchased DiscoverX (KINOMEscan)
T4 sequence (O00329 1-1044): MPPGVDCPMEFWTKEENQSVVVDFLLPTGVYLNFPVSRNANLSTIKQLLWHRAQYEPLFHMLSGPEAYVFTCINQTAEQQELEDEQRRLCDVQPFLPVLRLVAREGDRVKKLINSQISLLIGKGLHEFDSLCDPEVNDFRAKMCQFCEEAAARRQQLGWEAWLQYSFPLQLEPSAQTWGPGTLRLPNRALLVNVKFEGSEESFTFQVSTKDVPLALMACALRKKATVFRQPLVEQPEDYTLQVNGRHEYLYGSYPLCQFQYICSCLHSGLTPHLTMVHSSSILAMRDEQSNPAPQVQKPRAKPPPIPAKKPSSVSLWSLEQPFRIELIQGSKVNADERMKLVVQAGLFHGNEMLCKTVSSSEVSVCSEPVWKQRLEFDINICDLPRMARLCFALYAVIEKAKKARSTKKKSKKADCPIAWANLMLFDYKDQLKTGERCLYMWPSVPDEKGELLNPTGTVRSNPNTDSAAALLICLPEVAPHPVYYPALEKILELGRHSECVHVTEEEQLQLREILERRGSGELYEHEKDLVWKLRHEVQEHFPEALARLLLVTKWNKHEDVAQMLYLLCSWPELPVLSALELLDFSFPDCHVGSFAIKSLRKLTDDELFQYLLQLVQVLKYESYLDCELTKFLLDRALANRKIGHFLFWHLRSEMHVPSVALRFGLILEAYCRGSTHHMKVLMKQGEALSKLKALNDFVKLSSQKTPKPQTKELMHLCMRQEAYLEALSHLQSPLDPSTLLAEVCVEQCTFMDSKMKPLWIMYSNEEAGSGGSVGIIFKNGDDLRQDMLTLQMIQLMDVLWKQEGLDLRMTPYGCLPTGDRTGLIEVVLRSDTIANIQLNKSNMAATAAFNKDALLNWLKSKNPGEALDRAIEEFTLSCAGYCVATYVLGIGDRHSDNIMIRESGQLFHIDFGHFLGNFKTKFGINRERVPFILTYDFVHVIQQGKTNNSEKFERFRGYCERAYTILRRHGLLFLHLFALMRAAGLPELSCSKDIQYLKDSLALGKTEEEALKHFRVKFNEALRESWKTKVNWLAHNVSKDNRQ

IKK-epsilon = target: T5, IKK-epsilon (Homo sapiens, UniProt Q14164)
T5 construct: purchased DiscoverX (KINOMEscan)
T5 sequence (Q14164 1-716): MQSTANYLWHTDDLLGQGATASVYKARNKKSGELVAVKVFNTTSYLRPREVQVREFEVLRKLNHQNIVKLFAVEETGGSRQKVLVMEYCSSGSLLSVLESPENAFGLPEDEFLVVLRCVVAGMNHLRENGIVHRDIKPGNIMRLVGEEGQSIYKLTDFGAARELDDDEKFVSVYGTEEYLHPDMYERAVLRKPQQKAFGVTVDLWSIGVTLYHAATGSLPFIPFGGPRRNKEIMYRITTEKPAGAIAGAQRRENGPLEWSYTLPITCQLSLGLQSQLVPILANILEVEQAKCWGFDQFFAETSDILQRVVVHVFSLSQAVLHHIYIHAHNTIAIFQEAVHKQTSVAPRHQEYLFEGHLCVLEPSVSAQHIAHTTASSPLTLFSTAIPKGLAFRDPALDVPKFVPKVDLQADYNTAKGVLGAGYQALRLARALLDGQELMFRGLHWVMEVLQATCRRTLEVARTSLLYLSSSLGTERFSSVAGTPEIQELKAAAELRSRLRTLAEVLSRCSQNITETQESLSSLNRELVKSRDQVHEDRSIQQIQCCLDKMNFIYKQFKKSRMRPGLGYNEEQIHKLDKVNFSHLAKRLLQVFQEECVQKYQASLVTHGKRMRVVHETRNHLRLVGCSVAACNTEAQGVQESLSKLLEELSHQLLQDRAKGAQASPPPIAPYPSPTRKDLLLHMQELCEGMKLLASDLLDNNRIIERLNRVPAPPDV

[1] = target: T6, JAK2(JH1domain-catalytic) (Homo sapiens, UniProt O60674)
T6 construct: JAK2(JH1domain-catalytic); purchased DiscoverX (KINOMEscan)
T6 sequence (O60674 849-1124 limits assumed): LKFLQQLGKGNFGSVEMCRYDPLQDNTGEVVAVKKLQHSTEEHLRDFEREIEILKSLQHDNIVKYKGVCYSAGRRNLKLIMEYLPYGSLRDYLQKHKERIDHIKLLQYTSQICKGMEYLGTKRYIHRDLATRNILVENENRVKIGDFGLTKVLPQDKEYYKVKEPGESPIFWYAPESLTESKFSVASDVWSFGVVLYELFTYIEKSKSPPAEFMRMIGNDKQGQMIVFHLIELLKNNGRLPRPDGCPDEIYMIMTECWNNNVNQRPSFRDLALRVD

KIT(A829P) = target: T7, KIT(A829P) (Homo sapiens, UniProt P10721, A829P)
T7 construct: purchased DiscoverX (KINOMEscan)
T7 sequence (P10721 26-976 A829P): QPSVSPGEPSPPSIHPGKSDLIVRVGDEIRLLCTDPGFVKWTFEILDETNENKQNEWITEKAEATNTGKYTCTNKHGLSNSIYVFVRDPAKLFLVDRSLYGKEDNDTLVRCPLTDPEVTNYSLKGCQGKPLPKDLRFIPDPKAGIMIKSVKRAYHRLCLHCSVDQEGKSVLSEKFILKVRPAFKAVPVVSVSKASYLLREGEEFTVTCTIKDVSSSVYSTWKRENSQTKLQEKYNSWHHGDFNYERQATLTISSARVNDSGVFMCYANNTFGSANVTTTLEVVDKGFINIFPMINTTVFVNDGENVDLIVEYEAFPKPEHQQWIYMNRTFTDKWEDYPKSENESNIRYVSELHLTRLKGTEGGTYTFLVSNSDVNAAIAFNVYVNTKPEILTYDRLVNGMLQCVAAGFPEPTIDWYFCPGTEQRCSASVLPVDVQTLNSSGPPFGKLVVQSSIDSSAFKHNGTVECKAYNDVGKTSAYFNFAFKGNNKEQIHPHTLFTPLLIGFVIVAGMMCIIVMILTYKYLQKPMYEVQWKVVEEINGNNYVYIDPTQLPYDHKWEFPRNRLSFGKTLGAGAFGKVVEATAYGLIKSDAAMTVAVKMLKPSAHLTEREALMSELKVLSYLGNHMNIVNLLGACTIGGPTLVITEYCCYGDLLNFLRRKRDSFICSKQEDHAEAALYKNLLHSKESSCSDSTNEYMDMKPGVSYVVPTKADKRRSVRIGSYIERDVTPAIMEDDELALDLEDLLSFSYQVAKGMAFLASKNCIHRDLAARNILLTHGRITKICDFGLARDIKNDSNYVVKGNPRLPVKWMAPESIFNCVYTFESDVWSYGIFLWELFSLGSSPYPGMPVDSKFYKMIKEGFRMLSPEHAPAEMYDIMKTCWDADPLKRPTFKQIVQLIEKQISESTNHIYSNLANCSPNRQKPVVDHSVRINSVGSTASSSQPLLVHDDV

## CCN1CCN(Cc2c(O)ccc3c(=O)c(Oc4ccccc4C(C)C)c(C(F)(F)F)oc23)CC1 [NCGC00100599]
PRKG2
  % Control, PRKG2: 32 % Control
MYLK
  % Control, MYLK: 31 % Control
ERBB3
  % Control, ERBB3: 17 % Control
PIK3CD
  % Control, PIK3CD: 10 % Control
IKK-epsilon
  % Control, IKK-epsilon: 31 % Control
[1]
  % Control, JAK2(JH1domain-catalytic): 31 % Control
KIT(A829P)
  % Control, KIT(A829P): 34 % Control
